Results as given in ChEMBL document CHEMBL4428029, “Notch Antagonists: Potential Modulators of Cancer and Inflammatory Diseases” (J Med Chem, 2016).
One block for each compound: values may come before it. Residues, ends and D or L forms follow the SMILES beside them. *: point of attachment. Decanoyl = CCCCCCCCCC(=O)*; CH2Cl = ClC*

Experiments:
Gamma-secretase [1] = assay: Inhibition of gamma secretase in HEK293 cells expressing APP695 assessed as reduction in amyloid beta (1 to 40 residues) by ELISA; type: cell-based, Homo sapiens
A549 = assay: Antitumor activity against human A549 cells xenografted in nude mouse assessed as tumor growth inhibition at 3 to 60 mg/kg qd or bid administered via oral gavage for 7 to 21 days relative to vehicle treated control; type: functional
Gamma-secretase [2] = assay: Inhibition of gamma secretase mediated Notch1 signaling in HEK293 cells expressing truncated human Notch1 by luciferase reporter gene assay; type: cell-based
Gamma-secretase [3] = assay: Inhibition of gamma secretase in human MCF7 cells assessed as reduction in amyloid beta 40 after 3 days by Western blot analysis
[4] = biological target: T1, Neuroendocrine convertase 1 (Homo sapiens, UniProt P29120); assay: Inhibition of recombinant C-terminal truncated human SPC3 expressed in drosophila Schneider 2 cells after 1 hr by spectrofluorometry; type: cell-based
T1 sequence (P29120 whole entry): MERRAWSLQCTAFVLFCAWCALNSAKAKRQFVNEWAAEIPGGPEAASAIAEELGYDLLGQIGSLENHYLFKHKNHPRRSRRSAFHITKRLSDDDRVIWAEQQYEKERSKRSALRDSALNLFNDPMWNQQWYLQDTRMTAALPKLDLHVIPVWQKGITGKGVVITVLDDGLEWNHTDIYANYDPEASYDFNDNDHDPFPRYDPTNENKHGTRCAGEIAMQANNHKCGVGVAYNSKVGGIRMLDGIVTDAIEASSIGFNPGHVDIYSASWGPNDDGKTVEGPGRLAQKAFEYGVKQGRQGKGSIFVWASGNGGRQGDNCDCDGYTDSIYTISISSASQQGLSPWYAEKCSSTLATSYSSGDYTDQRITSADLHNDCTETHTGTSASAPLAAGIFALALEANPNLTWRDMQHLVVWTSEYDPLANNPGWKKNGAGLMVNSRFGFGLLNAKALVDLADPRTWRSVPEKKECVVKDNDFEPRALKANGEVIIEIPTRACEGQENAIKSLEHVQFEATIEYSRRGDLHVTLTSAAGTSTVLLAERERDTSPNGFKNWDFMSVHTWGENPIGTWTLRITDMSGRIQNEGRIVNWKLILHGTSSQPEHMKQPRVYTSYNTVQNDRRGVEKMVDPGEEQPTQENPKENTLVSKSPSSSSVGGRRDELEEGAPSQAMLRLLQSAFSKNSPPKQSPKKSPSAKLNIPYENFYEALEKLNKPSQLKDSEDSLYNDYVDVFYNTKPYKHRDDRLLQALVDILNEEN

[5] = biological target: T2, Neuroendocrine convertase 2 (Homo sapiens, UniProt P16519); assay: Inhibition of recombinant C-terminal truncated human SPC2 expressed in drosophila Schneider 2 cells after 1 hr by spectrofluorometry; type: cell-based
T2 sequence (P16519 whole entry): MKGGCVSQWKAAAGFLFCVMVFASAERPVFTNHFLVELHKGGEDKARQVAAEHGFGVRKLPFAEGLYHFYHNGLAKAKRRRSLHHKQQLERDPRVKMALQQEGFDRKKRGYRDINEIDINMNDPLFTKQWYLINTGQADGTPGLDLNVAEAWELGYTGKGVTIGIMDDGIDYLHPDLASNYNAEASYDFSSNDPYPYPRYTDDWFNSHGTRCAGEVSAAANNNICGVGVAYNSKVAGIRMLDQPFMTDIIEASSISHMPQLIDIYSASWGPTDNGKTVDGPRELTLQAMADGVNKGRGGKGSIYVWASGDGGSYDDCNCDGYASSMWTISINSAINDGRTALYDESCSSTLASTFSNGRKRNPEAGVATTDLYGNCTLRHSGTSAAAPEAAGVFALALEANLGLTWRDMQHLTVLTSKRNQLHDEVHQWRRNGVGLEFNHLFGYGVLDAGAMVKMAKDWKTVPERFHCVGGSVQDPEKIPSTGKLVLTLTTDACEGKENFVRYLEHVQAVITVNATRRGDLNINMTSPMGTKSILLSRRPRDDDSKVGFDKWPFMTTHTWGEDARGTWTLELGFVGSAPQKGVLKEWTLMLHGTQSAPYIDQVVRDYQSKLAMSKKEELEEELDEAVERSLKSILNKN

Gamma-secretase [6] = assay: Inhibition of gamma secretase (unknown origin) mediated Notch activation; type: protein-complex assay, Homo sapiens
Gamma-secretase [7] = assay: Modulation of gamma secretase (unknown origin) assessed as reduction in amyloid beta levels; type: protein-complex assay, Homo sapiens
Gamma-secretase [8] = assay: Inhibition of full-length human gamma secretase expressed in SH-SY5Y spbetaA4CTF cells assessed as reduction in amyloid beta levels after 90 mins by HTRF assay; type: cell-based
Gamma-secretase [9] = assay: Inhibition of gamma secretase (unknown origin) assessed as reduction in amyloid beta levels by HTRF assay; type: protein-complex assay, Homo sapiens
Gamma-secretase [10] = assay: Inhibition of gamma secretase (unknown origin) mediated Notch signaling by cell based luciferase reporter gene assay
Gamma-secretase [11] = assay: Inhibition of gamma secretase in human primary neuronal cells assessed as reduction in amyloid beta 40
Gamma-secretase [12] = assay: Inhibition of gamma secretase (unknown origin) mediated APP cleavage in CHO cells expressing APP Swedish KM/NL mutant assessed as reduction in amyloid beta 40 after 24 hrs by sandwich ELISA
Gamma-secretase [13] = assay: Inhibition of gamma secretase (unknown origin) mediated Notch M1726V mutant activation in CHO K1 cells after 48 hrs by chemiluminescence assay
Gamma-secretase [14] = assay: Inhibition of gamma secretase mediated Notch signaling in human SupT1 cells after 16 hrs by chemiluminescence assay; type: cell-based
Gamma-secretase [15] = assay: Inhibition of gamma secretase in human SupT1 cells assessed as reduction in amyloid beta 40 after 16 hrs by chemiluminescence assay; type: cell-based
Gamma-secretase [16] = assay: Inhibition of gamma secretase mediated Notch delta E activation in human HeLa cells expressing EGFP after 16 hrs by immunofluorescence analysis; type: cell-based
[17] = biological target: Disintegrin and metalloproteinase domain-containing protein 17 (Homo sapiens, UniProt P78536); assay: Inhibition of ADAM17 (unknown origin) assessed as blockage of TNF-alpha shedding
Gamma-secretase [18] = assay: Inhibition of gamma secretase (unknown origin); type: protein-complex assay, Homo sapiens
Gamma-secretase [19] = assay: Inhibition of gamma secretase (unknown origin) mediated Notch signaling; type: protein-complex assay, Homo sapiens
Gamma-secretase [20] = assay: Inhibition of gamma secretase mediated amyloid beta level reduction in HEK293 cells expressing APP after 72 hrs by chemiluminescence assay; type: cell-based, Homo sapiens

Chain of Disintegrin and metalloproteinase domain-containing protein 17 (P78536 whole entry, the tested form may be a part): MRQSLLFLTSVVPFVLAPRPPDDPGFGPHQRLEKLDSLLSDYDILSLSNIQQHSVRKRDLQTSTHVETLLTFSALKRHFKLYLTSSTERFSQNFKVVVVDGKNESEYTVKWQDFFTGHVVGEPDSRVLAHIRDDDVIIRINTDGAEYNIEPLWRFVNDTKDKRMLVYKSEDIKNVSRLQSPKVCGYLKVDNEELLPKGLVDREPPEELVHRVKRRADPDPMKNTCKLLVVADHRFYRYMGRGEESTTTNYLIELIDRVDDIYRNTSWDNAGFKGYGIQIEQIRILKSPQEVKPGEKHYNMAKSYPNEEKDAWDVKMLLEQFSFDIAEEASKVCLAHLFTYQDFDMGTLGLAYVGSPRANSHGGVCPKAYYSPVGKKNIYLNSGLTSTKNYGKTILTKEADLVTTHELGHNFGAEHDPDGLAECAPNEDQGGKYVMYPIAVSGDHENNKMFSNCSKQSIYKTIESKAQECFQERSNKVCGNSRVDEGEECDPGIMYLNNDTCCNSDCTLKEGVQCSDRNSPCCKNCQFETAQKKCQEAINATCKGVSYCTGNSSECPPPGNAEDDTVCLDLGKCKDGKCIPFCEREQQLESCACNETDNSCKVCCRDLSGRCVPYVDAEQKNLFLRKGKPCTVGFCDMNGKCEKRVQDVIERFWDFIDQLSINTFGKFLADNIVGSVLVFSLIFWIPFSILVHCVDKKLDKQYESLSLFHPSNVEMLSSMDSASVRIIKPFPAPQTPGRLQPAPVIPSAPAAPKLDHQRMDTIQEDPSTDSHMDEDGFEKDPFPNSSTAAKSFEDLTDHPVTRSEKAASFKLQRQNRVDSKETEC

EC50 (Gamma-secretase [1]): 14 nM
EC50 (Gamma-secretase [2]): 5 nM
SMILES: CC(C)(C(=O)NCC(F)(F)C(F)(F)F)C(=O)N[C@@H]1C(=O)Nc2ccccc2-c2ccccc21 [RG-4733]
TGI (A549): 66 - 91%

IC50 (Gamma-secretase [3]): 5 nM
SMILES: O=C(O)CC[C@H]1CC[C@@](c2cc(F)ccc2F)(S(=O)(=O)c2ccc(Cl)cc2)CC1 [MK-0752]

IC50 (Gamma-secretase [6]): 0.27 nM
SMILES: CC(C)[C@H](O)C(=O)N[C@@H](C)C(=O)N[C@@H]1C(=O)N(C)c2ccccc2-c2ccccc21

IC50 (Gamma-secretase [10]): 500 nM
IC50 (Gamma-secretase [11]): 115 to 200 nM
SMILES: C[C@H](NC(=O)Cc1cc(F)cc(F)c1)C(=O)N[C@H](C(=O)OC(C)(C)C)c1ccccc1

IC50 (Gamma-secretase [16]): 2300 nM
SMILES: CC1=C(C(=O)OC2CCCCC2)C(c2ccc([N+](=O)[O-])cc2)C2=C(CC(C)(C)CC2=O)N1 (configuration not stated)

IC50 [17]: 8100 nM
SMILES: CC(C)CC(CC(=O)NO)C(=O)N[C@@H](Cc1ccc2ccccc2c1)C(=O)N[C@@H](C)C(=O)NCCN (some centres not stated)

IC50 (Gamma-secretase [18]): 10.9 to 12.1 nM
IC50 (Gamma-secretase [19]): 14.1 nM
SMILES: CC(C)[C@H](O)C(=O)N[C@@H](C)C(=O)N[C@@H]1C(=O)N(C)CCc2ccccc21

Continued, compound first:

SMILES: CCCCCCCCCC(=O)N[C@@H](CCCNC(=N)N)C(=O)N[C@H](C(=O)N[C@@H](CCCCN)C(=O)N[C@@H](CCCNC(=N)N)C(=O)CCl)C(C)C (Decanoyl-RVKR-CH2Cl)
Ki [4]: 2 nM
Ki [5]: 0.36 nM

SMILES: C[C@@H](C(=O)O)c1ccc(-c2ccccc2)c(F)c1 [TARENFLURBIL]
IC50 (Gamma-secretase [7]): 100000 nM

SMILES: CC(C)C[C@H](NC(=O)[C@H](Cc1ccccc1)C[C@@H](O)[C@H](Cc1ccccc1)NC(=O)OC(C)(C)C)C(=O)N[C@@H](Cc1ccccc1)C(N)=O
IC50 (Gamma-secretase [8]): 115 to 200 nM
IC50 (Gamma-secretase [9]): 17 nM

SMILES: O=S(=O)(N[C@H](CO)C(C(F)(F)F)C(F)(F)F)c1ccc(Cl)s1 [BEGACESTAT]
IC50 (Gamma-secretase [12]): 14.8 nM
IC50 (Gamma-secretase [13]): 208 nM

SMILES: C[C@H](NC(=O)Cc1cc(F)cc(F)c1)C(=O)N[C@@H]1C(=O)N(C)c2ccccc2-c2ccccc21
IC50 (Gamma-secretase [14]): 2.9 nM
IC50 (Gamma-secretase [15]): 2.6 nM

SMILES: C[C@H](NC(=O)CCC(F)(F)F)C(=O)N[C@H]1C(=O)N(CCO)c2ncccc2-c2ccccc21
IC50 (Gamma-secretase [19]): 0.41 nM

SMILES: COc1oc(=O)c2cc(N)ccc2c1Cl
IC50 (Gamma-secretase [20]): 30000 nM
